In patent US6358885B1, “Substituted phenylheterocyclic herbicides” (Mississippi State University, priority 1992, dated 2002):

Columns and labels:
[1] = tested on: bedstraw; assay: Test B preemergence/postemergence greenhouse plant response rating 0 to 10; type: in vivo, Galium aparine; settings: 0 to 10 scale
In short: (§1)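 Both application timings were run together: seeds got compound preemergence, and established seedlings (two to eighteen cm) got it postemergence. Non-phytotoxic solvent carried the chemical. Ratings are visual, versus controls, at twelve to sixteen days.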

[2] = tested on: cheatgrass; assay: as above; type: in vivo, Bromus secalinus; settings: 0 to 10 scale
In short: as §1

[3] = tested on: cocklebur; assay: as above; type: in vivo, Xanthium pensylvanicum; settings: 0 to 10 scale
In short: as §1

[4] = tested on: cotton; assay: as above; type: in vivo, Gossypium hirsutum; settings: 0 to 10 scale
In short: as §1

[5] = tested on: crabgrass; assay: as above; type: in vivo, Digitaria spp.; settings: 0 to 10 scale
In short: as §1

[6] = tested on: giant foxtail; assay: as above; type: in vivo, Setaria faberii; settings: 0 to 10 scale
In short: as §1

[7] = tested on: morningglory; assay: as above; type: in vivo, Ipomoea hederacea; settings: 0 to 10 scale
In short: as §1

[8] = tested on: rape; assay: as above; type: in vivo, Brassica napus; settings: 0 to 10 scale
In short: as §1

[9] = tested on: barley; assay: Test C preemergence/postemergence greenhouse plant response rating 0 to 100; type: in vivo, Hordeum vulgare; settings: POSTEMERGENCE
In short: (§2)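 Compounds in non-phytotoxic solvent went onto sandy loam before emergence (seeded one day earlier) or onto plants at the one-to-four leaf stage. Duck salad was treated via flood water (~2.5 cm, maintained) over silt loam.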

[10] = tested on: chickweed; assay: as above; type: in vivo, Stellaria media; settings: POSTEMERGENCE
In short: as §2

[11] = tested on: cotton; assay: as above; type: in vivo, Gossypium hirsutum; settings: POSTEMERGENCE
In short: as §2

[12] = tested on: giant foxtail; assay: as above; type: in vivo, Setaria faberii; settings: POSTEMERGENCE
In short: as §2

[13] = tested on: lambsquarters; assay: as above; type: in vivo, Chenopodium album; settings: POSTEMERGENCE
In short: as §2

[14] = tested on: pigweed; assay: as above; type: in vivo, Amaranthusretroflexus; settings: POSTEMERGENCE
In short: as §2

[15] = tested on: soybean; assay: as above; type: in vivo, Glycine max; settings: POSTEMERGENCE
In short: as §2

[16] = tested on: velvetleaf; assay: as above; type: in vivo, Abutilon theophrasti; settings: POSTEMERGENCE
In short: as §2

[17] = tested on: umbrella sedge; assay: Test C flood test plant response rating 0 to 100; type: in vivo, Cyperus difformis
In short: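 Compounds in non-phytotoxic solvent applied preemergence to sandy loam one day after planting, postemergence at the 1–4 leaf stage, or to ~2.5 cm floodwater over silt loam.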

[18] = tested on: duck salad; assay: Test C flood test plant response rating 0 to 100; type: in vivo, Heteranthera limosa
In short: as §2

[19] = POSTEMERGENCE section, flood test, Rate 1 g/ha
[20] = POSTEMERGENCE section, flood test, Rate 4 g/ha
[21] = Rate 16 g/ha, under POSTEMERGENCE head (flood test species)
[22] = flood test species listed under POSTEMERGENCE, 62 g/ha, 0 to 100 scale

COCN1C(=O)COc2cc(F)c(-c3nn4c(c3Cl)CCCC4)cc21 [Compound 55]
30: Plant response rating (0 to 100), Barley Igri ([9]; Rate 4 g/ha) | Plant response rating (0 to 100), Chickweed ([10]; Rate 1 g/ha) | Plant response rating (0 to 100), Giant foxtail ([12]; Rate 4 g/ha) | Plant response rating (0 to 100), Umbrella sedge [17, 20]
10: Plant response rating, Bedstraw ([1]; POSTEMERGENCE, Rate 50 g/ha) | Plant response rating, Bedstraw ([1]; PREEMERGENCE, Rate 50 g/ha) | Plant response rating, Cocklebur ([3]; POSTEMERGENCE, Rate 10 g/ha) | Plant response rating, Cocklebur ([3]; POSTEMERGENCE, Rate 50 g/ha) | Plant response rating, Cotton ([4]; POSTEMERGENCE, Rate 10 g/ha) | Plant response rating, Cotton ([4]; POSTEMERGENCE, Rate 50 g/ha) | Plant response rating, Morningglory ([7]; POSTEMERGENCE, Rate 10 g/ha) | Plant response rating, Morningglory ([7]; POSTEMERGENCE, Rate 50 g/ha) | Plant response rating, Rape ([8]; POSTEMERGENCE, Rate 10 g/ha) | Plant response rating, Rape ([8]; POSTEMERGENCE, Rate 50 g/ha) | Plant response rating (0 to 100), Umbrella sedge [17, 19] | Plant response rating (0 to 100), Duck salad [18, 21]
40: Plant response rating (0 to 100), Barley Igri ([9]; Rate 16 g/ha) | Plant response rating (0 to 100), Giant foxtail ([12]; Rate 16 g/ha) | Plant response rating (0 to 100), Soybean ([15]; Rate 1 g/ha)
8: Plant response rating, Cheatgrass ([2]; POSTEMERGENCE, Rate 50 g/ha) | Plant response rating, Giant foxtail ([6]; PREEMERGENCE, Rate 50 g/ha) | Plant response rating, Morningglory ([7]; PREEMERGENCE, Rate 50 g/ha)
5: Plant response rating, Cheatgrass ([2]; PREEMERGENCE, Rate 50 g/ha)
6: Plant response rating, Cheatgrass ([2]; POSTEMERGENCE, Rate 10 g/ha) | Plant response rating, Cotton ([4]; PREEMERGENCE, Rate 10 g/ha) | Plant response rating, Crabgrass ([5]; PREEMERGENCE, Rate 50 g/ha) | Plant response rating, Giant foxtail ([6]; POSTEMERGENCE, Rate 50 g/ha) | Plant response rating, Rape ([8]; PREEMERGENCE, Rate 50 g/ha)
9: Plant response rating, Bedstraw ([1]; POSTEMERGENCE, Rate 10 g/ha)
4: Plant response rating, Giant foxtail ([6]; POSTEMERGENCE, Rate 10 g/ha)
70: Plant response rating (0 to 100), Chickweed ([10]; Rate 4 g/ha) | Plant response rating (0 to 100), Soybean ([15]; Rate 4 g/ha) | Plant response rating (0 to 100), Umbrella sedge [17, 21]
20: Plant response rating (0 to 100), Barley Igri ([9]; Rate 1 g/ha) | Plant response rating (0 to 100), Giant foxtail ([12]; Rate 1 g/ha)
100: Plant response rating, Chickweed ([10]; 62 g/ha, 0 to 100 scale) | Plant response rating (0 to 100), Chickweed ([10]; Rate 16 g/ha) | Plant response rating, Cotton ([11]; 62 g/ha, 0 to 100 scale) | Plant response rating (0 to 100), Cotton ([11]; Rate 4 g/ha) | Plant response rating (0 to 100), Cotton ([11]; Rate 16 g/ha) | Plant response rating Lambsquarters ([13]; 62 g/ha, 0 to 100 scale) | Plant response rating (0 to 100), Lambsquarters ([13]; Rate 1 g/ha) | Plant response rating (0 to 100), Lambsquarters ([13]; Rate 4 g/ha) | Plant response rating (0 to 100), Lambsquarters ([13]; Rate 16 g/ha) | Plant response rating Pigweed ([14]; 62 g/ha, 0 to 100 scale) | Plant response rating (0 to 100), Pigweed ([14]; Rate 1 g/ha) | Plant response rating (0 to 100), Pigweed ([14]; Rate 4 g/ha) | Plant response rating (0 to 100), Pigweed ([14]; Rate 16 g/ha) | Plant response rating, Velvetleaf ([16]; 62 g/ha, 0 to 100 scale) | Plant response rating (0 to 100), Velvetleaf ([16]; Rate 4 g/ha) | Plant response rating (0 to 100), Velvetleaf ([16]; Rate 16 g/ha)
2: Plant response rating, Cocklebur ([3]; PREEMERGENCE, Rate 50 g/ha) | Plant response rating, Crabgrass ([5]; POSTEMERGENCE, Rate 10 g/ha) | Plant response rating, Giant foxtail ([6]; PREEMERGENCE, Rate 10 g/ha)
3: Plant response rating, Bedstraw ([1]; PREEMERGENCE, Rate 10 g/ha) | Plant response rating, Crabgrass ([5]; POSTEMERGENCE, Rate 50 g/ha)
50: Plant response rating Barley Igri ([9]; 62 g/ha, 0 to 100 scale) | Plant response rating, Giant foxtail ([12]; 62 g/ha, 0 to 100 scale) | Plant response rating Duck salad [18, 22]
1: Plant response rating, Cheatgrass ([2]; PREEMERGENCE, Rate 10 g/ha) | Plant response rating, Cotton ([4]; PREEMERGENCE, Rate 50 g/ha)
90: Plant response rating (0 to 100), Cotton ([11]; Rate 1 g/ha) | Plant response rating (0 to 100), Soybean ([15]; Rate 16 g/ha) | Plant response rating Umbrella sedge [17, 22]
95: Plant response rating, Soybean ([15]; 62 g/ha, 0 to 100 scale)
80: Plant response rating (0 to 100), Velvetleaf ([16]; Rate 1 g/ha)
0: Plant response rating, Crabgrass ([5]; PREEMERGENCE, Rate 10 g/ha) | Plant response rating (0 to 100), Duck salad [18, 19] | Plant response rating (0 to 100), Duck salad [18, 20]
